Results: ChEMBL document CHEMBL3714738, “Novel indole, indazole and benzimidazole arylamides as p2x3 and/or p2x2/3 antagonists” (2012)

Target: T1, P2X purinoceptor 3 (Rattus norvegicus, UniProt P49654)
T1 sequence (P49654 whole entry): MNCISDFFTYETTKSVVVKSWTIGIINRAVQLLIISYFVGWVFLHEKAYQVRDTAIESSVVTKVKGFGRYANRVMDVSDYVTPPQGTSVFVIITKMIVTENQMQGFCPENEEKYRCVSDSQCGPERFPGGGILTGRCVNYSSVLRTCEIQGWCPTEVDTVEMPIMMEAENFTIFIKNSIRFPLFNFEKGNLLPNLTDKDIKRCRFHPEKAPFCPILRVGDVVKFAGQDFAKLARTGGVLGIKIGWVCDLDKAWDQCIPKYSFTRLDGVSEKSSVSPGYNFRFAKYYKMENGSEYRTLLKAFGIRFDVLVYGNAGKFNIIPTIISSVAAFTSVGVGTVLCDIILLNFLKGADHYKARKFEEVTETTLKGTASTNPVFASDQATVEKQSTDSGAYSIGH
Experiment: Antagonist activity against rat P2X3 receptor expressed in CHOK1 cells assessed as inhibition of alpha,beta-meATP-induced calcium response incubated for 20 mins by Fluo-3AM dye based FLIPR assay
Assay type: functional, cell-based, CHO-K1

Row | Ki [nM] | Structure (SMILES)
1 | 102 | Cc1ccc(-c2cc(C(=O)N[C@@H](C)CO)cc3c2ccn3-c2ccccc2)nc1
2 | 288 | Cc1ccc(-c2cc(C(=O)N[C@@H](C)CO)cc3c2cnn3CC(C)C)nc1
3 | 18.6 | Cc1ccc(-c2cc(C(=O)NCc3cnc(C)cn3)cc3c2ccn3-c2ccccc2)nc1

Target: T2, P2X2/P2X3 heterotrimeric receptor (Homo sapiens, UniProt P56373+Q9UBL9)
T2 sequence (Q9UBL9 whole entry): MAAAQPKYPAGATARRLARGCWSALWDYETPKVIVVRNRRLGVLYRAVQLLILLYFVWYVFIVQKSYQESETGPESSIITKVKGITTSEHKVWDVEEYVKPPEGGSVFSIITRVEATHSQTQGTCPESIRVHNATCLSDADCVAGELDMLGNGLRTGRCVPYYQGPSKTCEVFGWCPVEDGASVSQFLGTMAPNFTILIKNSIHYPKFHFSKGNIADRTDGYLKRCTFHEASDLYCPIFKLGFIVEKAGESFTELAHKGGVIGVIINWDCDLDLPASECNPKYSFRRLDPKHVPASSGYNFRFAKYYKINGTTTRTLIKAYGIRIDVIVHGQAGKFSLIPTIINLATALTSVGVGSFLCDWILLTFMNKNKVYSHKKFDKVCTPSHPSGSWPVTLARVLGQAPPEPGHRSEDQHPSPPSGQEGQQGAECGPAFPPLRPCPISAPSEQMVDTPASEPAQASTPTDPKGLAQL
T2 sequence (P56373 whole entry): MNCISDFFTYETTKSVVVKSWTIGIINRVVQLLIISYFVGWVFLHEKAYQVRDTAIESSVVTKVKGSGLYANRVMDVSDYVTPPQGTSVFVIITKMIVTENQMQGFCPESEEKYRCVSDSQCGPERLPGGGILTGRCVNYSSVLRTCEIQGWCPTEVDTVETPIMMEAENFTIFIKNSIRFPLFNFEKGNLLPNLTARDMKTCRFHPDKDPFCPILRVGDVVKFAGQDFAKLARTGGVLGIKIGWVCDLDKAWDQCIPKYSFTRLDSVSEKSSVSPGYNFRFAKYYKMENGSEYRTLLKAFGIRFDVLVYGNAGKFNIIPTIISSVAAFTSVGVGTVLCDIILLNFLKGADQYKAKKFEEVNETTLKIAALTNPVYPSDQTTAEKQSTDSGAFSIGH
Experiment: Antagonist activity against human P2X2/3 receptor expressed in CHOK1 cells assessed as inhibition of alpha,beta-meATP-induced calcium response incubated for 20 mins by Fluo-3AM dye based FLIPR assay
Assay type: functional, cell-based, CHO-K1

Row | Ki [nM] | Structure (SMILES)
4 | 2880 | Cc1ccc(-c2cc(C(=O)N[C@@H](C)CO)cc3c2ccn3-c2ccccc2)nc1
5 | 7240 | Cc1ccc(-c2cc(C(=O)N[C@@H](C)CO)cc3c2cnn3CC(C)C)nc1
6 | 457 | Cc1ccc(-c2cc(C(=O)NCc3cnc(C)cn3)cc3c2ccn3-c2ccccc2)nc1
